In US12298306B2, “Marker for identifying patients with gliobastoma who respond positively to the drug regorafenib” (ISTITUTO ONCOLOGICO VENETO IOV-IRCCS, priority 2018, dated 2025):

Key:
glioblastoma = assay: REGOMA randomized, controlled, phase II clinical trial, survival by pACC Ser79 marker status; type: in vivo, patients
Description: Once all samples of the REGOMA trial which are available for the translational study (Table 1) have been stained, the biostatistics and clinical trial team of IOV (Mr. De Salvo—doctor) performed a statistical analysis to evaluate the possible prognostic or predictive meaning of the response of pACC^Ser79.
To evaluate the prognostic role of pACC^Ser79, an analysis was carried out according to the Cox model, considering pACC^Ser79 as an independent variable and dividing the patient samples into positive and negative (as reported above), and survival, being both free from disease progression and as a whole, as a dependent variable.
To evaluate the predictive role of pACC^Ser79, the variable of the treatment received by the patient was added to the Cox model (in particular, according to a randomized assignment, the patient received Regorafenib or Lomustine) in addition to the interaction factor of received treatment*status of the marker pACC^Ser79 (positive/negative).

[1] = tested on: glioblastoma at diagnosis; settings: in association with standard treatment; cited from earlier work

Compound: CNC(=O)c1cc(Oc2ccc(NC(=O)Nc3ccc(Cl)c(C(F)(F)F)c3)c(F)c2)ccn1 [Regorafenib]
- benefit from treatment in patients with neoplastic tissue positive to pACC Ser79 (glioblastoma; Cox model with treatment*marker interaction, comparator Lomustine): most benefited
- survival after second-line treatment in patients whose tumor samples express pACC Ser79 (glioblastoma; pACC Ser79 positive tumor samples, second-line treatment, REGOMA): longer survival

Compound: bevacizumab
- PFS [1]: improved
- quality of life [1]: improved
- survival (OS) [1]: no significant survival advantages
